Source: patent publication US9346812B2, “Substituted pyrrolopyrimidine compounds, compositions thereof, and methods of treatment therewith” (Signal Pharmaceutical LLC, priority 2013, dated 2016)

The compounds below were run on CAL51 cell proliferation (assay: Cell Titer Glo Proliferation Assay (CAL51)). Settings: Homo sapiens, CAL-51; CAL51 cell proliferation, 72 h, Cell Titer Glo luminescence; read-out: Act. Level.
Type: cell-based, human
Outline: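 CAL51 triple-negative breast cancer cells in DMEM or RPMI with 10% FBS were treated after overnight culture with serially diluted compound at 0.2% final DMSO. After 72 h, viability was read as CellTiter-Glo luminescence.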
`Cc1nc2ccc(-c3c[nH]c4nc(Nc5ccc(C(=O)N(C)C)cc5C)nc(OC5CCOCC5)c34)cc2[nH]1` [Example 128, N,N,3-trimethyl-4-(5-(2-methyl-1H-benzo[d]imidazol-6-yl)-4-(tetrahydro-2H-pyran-4-yloxy)-7H-pyrrolo[2,3-d]pyrimidin-2-ylamino)benzamide] gave an IC50 of under 100 nM. `CNC(=O)c1ccc(Nc2nc(OC)c3c(-c4cn[nH]c4)c[nH]c3n2)c(OC)c1` [Example 129, 3-methoxy-4-(4-methoxy-5-(1H-pyrazol-4-yl)-7H-pyrrolo[2,3-d]pyrimidin-2-ylamino)-N-methylbenzamide] showed an IC50 of 100 to 400 nM. Compound `CNCCNC(=O)c1ccc(Nc2nc(OC3CCOCC3)c3c(-c4ccc5nc(C)oc5c4)c[nH]c3n2)c(OC)c1` [Example 130, 3-methoxy-N-(2-(methylamino)ethyl)-4-(5-(2-methylbenzo[d]oxazol-6-yl)-4-(tetrahydro-2H-pyran-4-yloxy)-7H-pyrrolo [2,3-d]pyrimidin-2-ylamino)benzamide] has an IC50 of 100 to 400 nM. Work on `CNC(=O)c1ccc(Nc2nc(OC3CCOCC3)c3c(-c4ccnc(N(C)C)c4)c[nH]c3n2)c(OC)c1` [Example 131, 4-(5-(2-(dimethylamino)pyridin-4-yl)-4-(tetrahydro-2H-pyran-4-yloxy)-7H-pyrrolo[2,3-d]pyrimidin-2-ylamino)-3-methoxy-N-methylbenzamide] yielded an IC50 of under 100 nM. In the case of `CNC(=O)c1ccc(Nc2nc(O[C@H]3CCOC3)c3c(-c4ccc5nc(C)oc5c4)c[nH]c3n2)c(C)c1` [Example 133, (S)-N,3-dimethyl-4-(5-(2-methylbenzo[d]oxazol-6-yl)-4-(tetrahydrofuran-3-yloxy)-7H-pyrrolo[2,3-d]pyrimidin-2-ylamino)benzamide], the IC50 is reported as under 100 nM. In the case of `CNC(=O)c1ccc(Nc2nc(OC3CCOCC3)c3c(-c4ccc5nc(C)oc5c4C)c[nH]c3n2)c(OC)c1` [Example 135, 4-(5-(2,7-dimethylbenzo[d]oxazol-6-yl)-4-(tetrahydro-2H-pyran-4-yloxy)-7H-pyrrolo[2,3-d]pyrimidin-2-ylamino)-3-methoxy-N-methylbenzamide], the IC50 is reported as 1000 to 10000 nM. Work on `CNC(=O)c1ccc(Nc2nc(OC3CCOCC3)c3c(-c4cc5oc(C)nc5cc4C)c[nH]c3n2)c(OC)c1` [Example 136, 4-(5-(2,5-dimethylbenzo[d]oxazol-6-yl)-4-(tetrahydro-2H-pyran-4-yloxy)-7H-pyrrolo[2,3-d]pyrimidin-2-ylamino)-3-methoxy-N-methylbenzamide] yielded an IC50 of 1000 to 10000 nM. In the case of `CNC(=O)c1ccc(Nc2nc(O[C@H]3CC[C@H](O)CC3)c3c(-c4ccc5nc(C)oc5c4)c[nH]c3n2)c(OC)c1` [Example 137, 4-(4-((1r,4r)-4-hydroxycyclo-hexyloxy)-5-(2-methylbenzo[d]oxazol-6-yl)-7H-pyrrolo[2,3-d]pyrimidin-2-ylamino)-3-methoxy-N-methylbenzamide], the IC50 is reported as under 100 nM. `CNCCOc1nc(Nc2ccc(C(=O)NC)cc2OC)nc2[nH]cc(-c3ccc4nc(C)oc4c3)c12` [Example 138, 3-methoxy-N-methyl-4-(4-(2-(methylamino)ethoxy)-5-(2-methylbenzo[d]oxazol-6-yl)-7H-pyrrolo[2,3-d]pyrimidin-2-ylamino)benzamide] showed an IC50 of 1000 to 10000 nM. `CNC(=O)c1ccc(Nc2nc(OCCOC)c3c(-c4ccc5nc(C)oc5c4)c[nH]c3n2)c(OC)c1` [Example 139, 3-methoxy-4-(4-(2-methoxyethoxy)-5-(2-methylbenzo[d]oxazol-6-yl)-7H-pyrrolo[2,3-d]pyrimidin-2-ylamino)-N-methylbenzamide] showed an IC50 of under 100 nM. Work on `Cc1cc(C(=O)N(C)C)ccc1Nc1nc(OC2CCOCC2)c2c(-c3ccnc(C#N)c3)c[nH]c2n1` [Example 140, 4-(5-(2-cyanopyridin-4-yl)-4-(tetra-hydro-2H-pyran-4-yloxy)-7H-pyrrolo[2,3-d]pyrimidin-2-ylamino)-N,N,3-trimethylbenzamide] yielded an IC50 of 100 to 400 nM. In the case of `CNC(=O)c1ccc(Nc2nc(OC)c3c(-c4ccc(-c5ncc[nH]5)cc4)c[nH]c3n2)c(OC)c1` [Example 141, 4-(5-(4-(1H-imidazol-2-yl)phenyl)-4-methoxy-7H-pyrrolo[2,3-d]pyrimidin-2-ylamino)-3-methoxy-N-methylbenzamide], the IC50 is reported as 100 to 400 nM. `CNC(=O)c1ccc(Nc2nc(OC3CCOCC3)c3c(-c4ccnc(N)c4)c[nH]c3n2)c(OC)c1` [Example 142, 4-(5-(2-aminopyridin-4-yl)-4-(tetra-hydro-2H-pyran-4-yloxy)-7H-pyrrolo[2,3-d]pyrimidin-2-ylamino)-3-methoxy-N-methylbenzamide] was tested, and the IC50 was under 100 nM. With `CNC(=O)c1ccc(Nc2nc(OC3CCOCC3)c3c(-c4ccnc(OC)c4)c[nH]c3n2)c(OC)c1` [Example 143, 3-methoxy-4-(5-(2-methoxypyridin-4-yl)-4-(tetrahydro-2H-pyran-4-yloxy)-7H-pyrrolo[2,3-d]pyrimidin-2-ylamino)-N-methylbenzamide] the IC50 was under 100 nM. `CNC(=O)c1cccc(-c2c[nH]c3nc(Nc4ccc(C(=O)NC)cc4C)nc(OC4CCOCC4)c23)c1` [Example 144, N,3-dimethyl-4-(5-(3-(methyl-carbamoyl)phenyl)-4-(tetrahydro-2H-pyran-4-yloxy)-7H-pyrrolo[2,3-d]pyrimidin-2-ylamino)benzamide] showed an IC50 of 1000 to 10000 nM. `CNC(=O)c1ccc(Nc2nc(OC3CCOCC3)c3c(-c4ccnc(O)c4)c[nH]c3n2)c(OC)c1` [Example 147, 4-(5-(2-hydroxypyridin-4-yl)-4-(tetrahydro-2H-pyran-4-yloxy)-7H-pyrrolo[2,3-d]pyrimidin-2-ylamino)-3-methoxy-N-methylbenzamide] gave an IC50 of 100 to 400 nM. `CNC(=O)c1ccc(Nc2nc(OC3CCOCC3)c3c(-c4ccc5nc(C)n(C)c5c4)c[nH]c3n2)c(OC)c1` [Example 148, 4-(5-(1,2-dimethyl-1H-benzo[d]imidazol-6-yl)-4-(tetrahydro-2H-pyran-4-yloxy)-7H-pyrrolo[2,3-d]pyrimidin-2-ylamino)-3-methoxy-N-methylbenzamide] gave an IC50 of under 100 nM. `CNC(=O)c1cccc(-c2c[nH]c3nc(Nc4ccc(C(=O)NC)cc4C)nc(OC)c23)c1` [Example 149, 4-(4-methoxy-5-(3-(methylcarbamoyl)phenyl)-7H-pyrrolo[2,3-d]pyrimidin-2-ylamino)-N,3-dimethylbenzamide] was tested, and the IC50 was 1000 to 10000 nM. For `CNC(=O)c1ccc(Nc2nc(O[C@H]3CC[C@](C)(O)CC3)c3c(-c4ccc5nc(C)oc5c4)c[nH]c3n2)c(C)c1` [Example 150, 4-(4-((1r,4r)-4-hydroxy-4-methylcyclohexyloxy)-5-(2-methylbenzo[d]oxazol-6-yl)-7H-pyrrolo[2,3-d]pyrimidin-2-ylamino)-N,3-dimethylbenzamide], the IC50 was under 100 nM. `CNC(=O)c1ccc(Nc2nc(O[C@H]3CC[C@@](C)(O)CC3)c3c(-c4ccc5nc(C)oc5c4)c[nH]c3n2)c(C)c1` [Example 151, 4-(4-((1s,4s)-4-hydroxy-4-methylcyclohexyloxy)-5-(2-methylbenzo[d]oxazol-6-yl)-7H-pyrrolo[2,3-d]pyrimidin-2-ylamino)-N,3-dimethylbenzamide] gave an IC50 of under 100 nM. `CNC(=O)c1ccc(-c2c[nH]c3nc(Nc4ccc(C(=O)NC)cc4C)nc(O[C@H]4CCOC4)c23)cc1` [Example 153, (S)-N,3-dimethyl-4-(5-(4-(methylcarbamoyl)phenyl)-4-(tetrahydrofuran-3-yloxy)-7H-pyrrolo[2,3-d]pyrimidin-2-ylamino)benzamide] gave an IC50 of under 100 nM. For `CNC(=O)c1ccc(Nc2nc(OC3CCOCC3)c3c(-c4cncnc4)c[nH]c3n2)c(OC)c1` [Example 154, 3-methoxy-N-methyl-4-(5-(pyrimidin-5-yl)-4-(tetrahydro-2H-pyran-4-yloxy)-7H-pyrrolo[2,3-d]pyrimidin-2-ylamino) benzamide], the IC50 was 100 to 400 nM. `CNC(=O)c1ccc(Nc2nc(OC3CCOCC3)c3c(-c4ccnc(NC)c4)c[nH]c3n2)c(OC)c1` [Example 155, 3-methoxy-N-methyl-4-(5-(2-(methylamino)pyridin-4-yl)-4-(tetrahydro-2H-pyran-4-yloxy)-7H-pyrrolo[2,3-d]pyrimidin-2-ylamino)benzamide] showed an IC50 of under 100 nM. `CNC(=O)c1ccc(Nc2nc(OC)c3c(-c4ccncc4)c[nH]c3n2)c(C)c1` [Example 156, 4-(4-methoxy-5-(pyridin-4-yl)-7H-pyrrolo[2,3-d]pyrimidin-2-ylamino)-N,3-dimethylbenzamide] gave an IC50 of 100 to 400 nM. With `COc1nc(Nc2ccc(C(=O)N(C)C)cc2Cl)nc2[nH]cc(-c3ccncc3)c12` [Example 157, 3-chloro-4-(4-methoxy-5-(pyridin-4-yl)-7H-pyrrolo[2,3-d]pyrimidin-2-ylamino)-N,N-dimethylbenzamide] the IC50 was 100 to 400 nM. Work on `CNC(=O)c1ccc(Nc2nc(OC3CCOCC3)c3c(-c4ccc(S(C)(=O)=O)cc4)c[nH]c3n2)c(C)c1` [Example 158, N,3-dimethyl-4-(5-(4-(methylsulfonyl)phenyl)-4-(tetrahydro-2H-pyran-4-yloxy)-7H-pyrrolo[2,3-d]pyrimidin-2-ylamino)benzamide] yielded an IC50 of 400 to 1000 nM. For `CNC(=O)c1ccc(-c2c[nH]c3nc(Nc4ccc(C(=O)N(C)C)cc4C)nc(OC4CCOCC4)c23)cn1` [Example 159, 5-(2-(4-(dimethylcarbamoyl)-2-methylphenylamino)-4-(tetrahydro-2H-pyran-4-yloxy)-7H-pyrrolo[2,3-d]pyrimidin-5-yl)-N-methylpicolinamide], the IC50 was under 100 nM. With `COc1cc(C(=O)NCCO)ccc1Nc1nc(OC(C)C)c2c(-c3ccc4nc(C)oc4c3)c[nH]c2n1` [Example 160, N-(2-hydroxyethyl)-4-(4-isopropoxy-5-(2-methylbenzo[d]oxazol-6-yl)-7H-pyrrolo[2,3-d]pyrimidin-2-ylamino)-3-methoxybenzamide] the IC50 was under 100 nM. Compound `CCOc1ccc(-c2c[nH]c3nc(Nc4ccc(C(=O)NC)cc4OC)nc(O[C@H]4CCOC4)c23)cn1` [Example 161, (S)-4-(5-(6-ethoxypyridin-3-yl)-4-(tetrahydrofuran-3-yloxy)-7H-pyrrolo[2,3-d]pyrimidin-2-ylamino)-3-methoxy-N-methylbenzamide] has an IC50 of 100 to 400 nM. Compound `CCOc1ccc(-c2c[nH]c3nc(Nc4ccc(C(=O)NC)cc4C)nc(O[C@H]4CCOC4)c23)cn1` [Example 162, (S)-4-(5-(6-ethoxypyridin-3-yl)-4-(tetrahydrofuran-3-yloxy)-7H-pyrrolo[2,3-d]pyrimidin-2-ylamino)-N,3-dimethylbenzamide] has an IC50 of 100 to 400 nM.
